Active and inactive are the calls of the source.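 How the source made its calls: active means AC50 no more than ten times the top concentration tested, that is within one log above it; inconclusive means flat curve fit with activity between 30% and 70%, or invalid poor fit; inactive means AC50 beyond ten times the top tested dose.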

Among the data in PubChem BioAssay AID463204 (Broad Institute, 2010) are AC50 values, retold here.

This assay deals with S. cerevisiae Mot1-301 ts growth rescue, BacTiter-Glo ATP luminescence. Nature of the assay: growth rescue of Mot1-301 ts yeast, confirmation, SUMOylation pathway inhibitor project, whole organism, S. cerevisiae, Mot1-301 ts mutant, luminescence, dose retest (AID 463204).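 Further: growth at restrictive 38.5 degrees C of Mot1-301 OY566 strain; actives raise luminescence by restoring growth of the ts mutant at high temperature.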

In the case of `O=c1cnc2ccccc2n1Cc1ccccc1C(F)(F)F`, the AC50 – broadly, the concentration giving half of the maximal activity seen – was > 42 µM (inactive).
Turning to `COC(=O)c1ccc(CSc2nc3ccccc3c(=O)n2CC(C)C)o1`, the AC50 is > 42 µM (inactive).
The result for `N#C/C(=C\c1cc([N+](=O)[O-])c(N2CCOCC2)cc1N1CCOCC1)c1nc2ccccc2[nH]1` reads > 42 µM (inactive).
For `Cc1ccc(NC(=O)CCS(=O)(=O)c2ccc3nc(C)sc3c2)cc1` the value was > 42 µM (inactive); for `CCN(CC)CCCN1C(=O)C(=O)/C(=C(/O)c2ccccc2)C1c1cc(OC)ccc1OC` (stereo not drawn), > 42 µM (inactive); for `CCOC(=O)CNC(=O)c1cccnc1`, > 42 µM (inactive).
The result for `Clc1ccccc1C(c1ccccc1)(c1ccccc1)n1ccnc1` reads 3.47 µM.
Consider `CCOC(=O)C1CCN(CC(O)COc2ccc(C(C)(C)C)cc2)CC1` (stereo not drawn), for which the AC50 was > 42 µM (inactive).
Take `O=C(O)c1cc(Oc2ccc(C(F)(F)F)cc2Cl)ccc1[N+](=O)[O-]`: the AC50 is > 42 µM (inactive).
As for `CCOC(=O)N1CCN(C(=O)c2ccc(OC)c(OC)c2)CC1`, the AC50 is > 42 µM (inactive).
The result for `COc1cc(SC)ccc1C(=O)Nc1cc(C)c(OCC(=O)N2CCOCC2)c(C)c1` reads > 42 µM (inactive); that for `COCCNCc1ccccc1`, > 42 µM (inactive).
The result for `CC(C)(C)NC(=O)CC1C(=O)NCCN1Cc1c(F)cccc1Cl` (stereo not drawn) reads > 42 µM (inactive); that for `COc1ccc(NC(=O)c2ccccc2NC(=O)NC2CCCCC2)cc1`, > 42 µM (inactive); that for `COc1ccc2c(Cl)c(C(=O)NN3CCN(C)CC3)sc2c1`, > 42 µM (inactive).
In the case of `O=C(COc1ccc(F)cc1Cl)N(Cc1nnc(-c2ccccc2Cl)o1)C1CC1`, the AC50 was > 42 µM (inactive).
The result for `CN(C)S(=O)(=O)N1CCc2ccccc2C1` reads > 42 µM (inactive); that for `CCCCc1n[nH]c(=S)n1Cc1ccc(C)cc1`, > 42 µM (inactive).
For `COc1ccc2c(c1)[C@H]1[C@H](CO2)[C@H](c2ccccc2)[C@]2(C)C(=O)Nc3ccc(C)cc3C(=O)N12` the value was > 42 µM (inactive).
For `CCCC(=O)Nc1ccc(Sc2ccc([N+](=O)[O-])cc2)cc1` the value was 30.9 µM; for `Cc1nn(CCOc2ccccc2)c(=O)n1-c1ccccc1F`, > 42 µM (inactive).
`O=C1CN(C(=O)COC(=O)CCNS(=O)(=O)c2ccc(Cl)cc2)c2ccccc2N1`: the AC50 is > 42 µM (inactive).
In the case of `O=C(NNc1ccccc1)C(CCO)C(=O)NNc1ccccc1`, the AC50 is > 42 µM (inactive).
Regarding `COc1ccc(NC(=O)CN(C)C(=O)/C=C/c2cn(-c3ccccc3)nc2-c2ccc(F)cc2)cc1`, the AC50 was > 42 µM (inactive).
For `O=C(CSc1nc2ccc(Nc3nc(N4CCOCC4)nc(N4CCOCC4)n3)cc2s1)N1CCOCC1`, the AC50 is > 42 µM (inactive).
On to `CCOC(=O)c1sc2ncn(C(CC)C(=O)OCC)c(=O)c2c1C` (stereo not drawn), for which the AC50 is > 42 µM (inactive).
`O=c1cc(-c2ccccc2)nc(N2CCN(Cc3ccccc3)CC2)[nH]1`: the AC50 was > 42 µM (inactive).
For the compound `CCCCNS(=O)(=O)c1ccc(OC)cc1`, the AC50 is > 42 µM (inactive).
For `Cc1cccc(C(=O)NCC(=O)N2CCN(c3ccc(Cl)cc3)CC2)c1` the value was > 42 µM (inactive).
The result for `CN(NC(=O)c1ccccc1F)c1nc(C(F)(F)F)nc2ccccc12` reads > 42 µM (inactive); that for `Cc1cc(C(F)(F)F)c(C#N)c(=O)[nH]1`, > 42 µM (inactive); that for `CN1C(=O)/C(=C/c2ccc(OCc3ccccc3F)cc2)NC1=S`, > 42 µM (inactive).
The result for `Cc1cc(C)cc(C(=O)N2CCC3(CC2)NCCc2[nH]cnc23)c1` reads > 42 µM (inactive); that for `N#Cc1ccc2[nH]c(CO)c(-c3ccccc3)c2c1`, > 42 µM (inactive); that for `CCN1C(=NCCCCO)N[C@@H](c2cccc(C(F)(F)F)c2)C(C(=O)OC)=C1C`, > 42 µM (inactive).
Turning to `CCCc1nn2c(=O)cc(CSCC(=O)Nc3ccc(OC)cc3)nc2s1`, the AC50 was > 42 µM (inactive).
As to `OC(COCc1cccs1)CN1CCCCCC1` (stereo not drawn), the AC50 is > 42 µM (inactive).
For `COc1ccc(NS(=O)(=O)c2ccc(OCC(=O)N3CCOCC3)cc2)cc1Cl` the value was > 42 µM (inactive); for `O=C(Nc1nc2ccccc2s1)c1cccc(S(=O)(=O)N2CCc3ccccc32)c1`, > 42 µM (inactive).
The result for `COc1ccc(OC(=O)c2ccc(Cl)cc2)c(C(C)=O)c1` reads > 42 µM (inactive); that for `CC(=O)Cc1nsc(Nc2cccc(C)c2)n1`, > 42 µM (inactive); that for `N#CC(C#N)=CN=c1ccn(Cc2ccc(Cl)cc2Cl)cc1`, > 42 µM (inactive).
The result for `Cc1sc2nc(CN3CCCC3)nc(NCc3ccncc3)c2c1C` reads > 42 µM (inactive); that for `C=CCNc1nnc(SC2CC(=O)N(c3ccc(OCCC)cc3)C2=O)s1` (stereo not drawn), 4.49 µM.
With `CCN(CCn1cccn1)C(=O)C1CCC(=O)N(CCc2cccc(F)c2)C1` (stereo not drawn), the AC50 is > 42 µM (inactive).
For `O=C(CSc1nnc(-c2ccc(Br)cc2)o1)Nc1cccc2ccccc12` the value was > 42 µM (inactive); for `CCNC(=S)Nc1ccc(C)c(S(=O)(=O)Nc2ccccc2OC)c1`, > 42 µM (inactive).
The result for `CC(C)(C)Cc1nc(-c2ccccn2)no1` reads > 42 µM (inactive); that for `CCOC(=O)Cn1c(=O)oc2cc(S(=O)(=O)NC(C)(C)CC)ccc21`, > 42 µM (inactive).
The result for `O=C(CCl)N(Cc1cc(=O)[nH]c2ccccc12)c1ccccc1` reads > 42 µM (inactive); that for `Cc1cccc(OCC(O)CN2C(C)(C)CC(O)CC2(C)C)c1` (stereo not drawn), > 42 µM (inactive); that for `CCOC(=O)C1=C(N)c2ccccc2CC1C1CCCC1` (stereo not drawn), > 42 µM (inactive).
For `Cc1cccc(NC(=O)CSCC(=O)N2CCCc3ccccc32)c1`, the AC50 is > 42 µM (inactive).
`O=C(Nc1ccc([N+](=O)[O-])cn1)c1ccc2c(c1)OCO2`: the AC50 is > 42 µM (inactive).
In the case of `Cc1ccc(-c2nc(CS(=O)(=O)CC(=O)NC3CCCCC3C)c(C)o2)cc1` (stereo not drawn), the AC50 is > 42 µM (inactive).
As to `CC1(C)C2CC[C@]3(C)C(CC=C4[C@@H]5C[C@@](C)(CO)[C@@H](O)C[C@]56C[C@@H](OC6=O)[C@]43C)[C@@]2(C)CC[C@@H]1O` (stereo partly drawn), the AC50 was > 42 µM (inactive).
The result for `CC1CCCC(C)N1CCCNC(=O)c1csc2c1CCCCC2` (stereo not drawn) reads > 42 µM (inactive); that for `Cc1nn(-c2ccccc2)c(N)c1N=Nc1cccc(S(=O)(=O)N2CCOCC2)c1`, > 42 µM (inactive).
As to `CC(=O)N1CCc2cc(S(=O)(=O)NCCC3=CCCCC3)ccc21`, the AC50 was > 42 µM (inactive).
The result for `CCn1c(SCC(=O)Nc2ccc(NC(=O)c3ccco3)cc2)nnc1-c1cccs1` reads > 42 µM (inactive); that for `Cc1cc(C)c2cc(C)c3nnc(SCC(=O)NCc4ccc5c(c4)OCO5)n3c2c1`, > 42 µM (inactive); that for `Cc1[nH]c2ccccc2c1/C=N/NC(=O)c1cccc(Br)c1`, > 42 µM (inactive).
The result for `O=C(CSc1nnc(CNC(=O)c2ccco2)o1)Nc1nc2ccccc2s1` reads > 42 µM (inactive).
